The values below come from patent publication US7662784B2, “Method for decreasing body weight using a somatostatin receptor agonist” (Ipsen Pharma, S.A.S., priority 1997, dated 2010).

The structures appear in SMILES notation. Bridge positions count the residues as written; N and C are the ends. Square brackets hold non-standard residues; d marks the D form. Peptide text beside a SMILES is read from it.

Data set [1] relates to fatty (fa/fa) Zucker rats. Description: Weight loss study, chronic (6 day) treatment in obese animal model.
Data set [2] relates to Obese (fa/fa) Zucker rats. As to the kind of experiment: Secondary endpoints: plasma glycerol and triglycerides after 6-day treatment, oral glucose challenge. The format is in vivo, rat. Here is the method:
Obese (fa/fa) Zucker rats were treated as in example 1 above. On the last day of treatment (day 6), food was removed at 5:00 p.m., and the rats were fasted overnight. At 9:00 a.m. the next day, the animals were subjected to a glucose challenge, given as 0.8 gram/kg of glucose orally. Periodic 400 μl of blood samples were taken from the tail vein (Peterson, R. G., ILAR News, 32:16-19 (1990)) 60 min. and 30 min. before and at 30, 60, 90, and 120 min. after the administration of the glucose challenge (0.8 gram/kg orally). Aprotinin (Traysylol, Bayer UK, Hayward's Health, W. Sussex, U.K. and heparin (Sigma Chemical Co., Poole, Dorset, U.K.) were added to the blood samples to a final concentration of 400 KIU/ml and 100 units/ml, respectively. Plasma fractions were prepared from these samples by centrifugation at 4000×G in a microfuge, for the estimation of triglycerides and glycerol. Samples were then stored at −80° C. until assayed.
Plasma glycerol and triglycerides were determined using the Sigma Enzymatic (Tinder) calorimetric assay kit (Cat #337-B, Sigma Chemical Co., Poole, Dorset, U.K.) and measuring absorbance at 540 nm in a spectrophotometer.

[3] abbreviates: 3 mg/kg s.c. twice a day for six days, fatty Zucker rats.
[4] abbreviates: after six days at 3 mg/kg s.c. twice a day, samples 30 and 60 minutes before the oral glucose challenge.
Where [5] appears, read: throughout the 2-hour test period after oral glucose challenge (0.8 gram/kg).

Take `C[C@@H](O)[C@@H]1NC(=O)[C@H](CCCCN)NC(=O)[C@@H](Cc2c[nH]c3ccccc23)NC(=O)[C@H](Cc2ccccc2)NC(=O)[C@H](Cc2ccccc2)NC(=O)[C@@H](N)CSSC[C@@H](C(N)=O)NC(=O)[C@H](Cc2ccccc2)NC1=O` [BIM-23268, H-Cys-Phe-Phe-D-Trp-Lys-Thr-Phe-Cys-NH2] (H-CFF[dW]KTFC-NH2; disulfide 1-8): the “amount of food consumed over the entire treatment period versus control” value in data set [1] (3 mg/kg s.c. twice a day for six days) was “no difference”. In data set [1] (setting [3]), the “body weight gain versus control” value is reported as “lower” and the “toxic effect / appearance of treated group” value was “appeared healthy”. Moreover, the average food consumption in data set [1] (3 mg/kg s.c. twice a day, 6-day treatment, control 26.0) amounted to 25.9 g/rat/day. In data set [1] (male fatty Zucker rats, 3 mg/kg s.c. twice a day for six days, control 418.89), the “treated group's mean weight after six days” value is given as 413.6. Also, in data set [1] (male fatty Zucker rats, before 3 mg/kg s.c. twice a day, control 414.09), the “treated group's mean weight at the start of the trial” value worked out at 413.6. For the same compound, the reducing hypertriglyceridemia result in data set [2] (6-day treatment period at the prescribed dose (3 mg/kg s.c. twice a day)) is “effective in reducing hypertriglyceridemia”. Moreover, in data set [2] (setting [4]), the plasma glycerol result is on record as “significantly lowered” and the plasma triglycerides entry is listed as “significantly lowered”. Further, in data set [2] (setting [5]), the plasma glycerol entry is “significantly lower” and the plasma triglycerides entry is given as “significantly lower”.
